# Columns and labels:
# [1] = Antioxidant screening experiments: stability of E5564 to free-radical oxidation; conditions: for Comments (effectiveness of antioxidant in stabilizing E5564 to oxidation): 18-22 hours
# Description: We tested several antioxidant compounds to determine whether they impact the stability of E5564 to free-radical oxidation.
# [2] = Relative stability of E5564 in aqueous solution by formation of major oxidative degradants (FIG. 1); format: physicochemical; conditions: inclusion of BHA, 7 μg/vial
# Description: FIG. 1 is a graph showing the relative stability of E5564 in aqueous solution prepared with different drug substance lots, as measured by the formation of major oxidative degradants.
# The following is a detailed description of an example of a method for formulating E5564. As is discussed further below, key features of this method include the following. A small amount (7 μg/vial) of butylated hydroxyanisole (BHA) was added to the formulation to prevent oxidation of the E5564 in aqueous solution. […] In addition, the sodium content of the solution was lowered by replacing sodium phosphate salts with phosphoric acid for pH adjustment, to enhance micelle size stability during the freeze-drying manufacturing step, and a high shelf temperature was used in the freeze-drying step of the process.
# [3] = Stabilization of E5564 micelle size during lyophilization (freeze-drying); conditions: for Micelle Size (hydrodynamic diameter): after lyophilization; for Stabilizing the micelle size of E5564 during freeze-drying: disaccharide in formulation
# [4] = time 0-4 hours, E5564 solution with the labelled antioxidant
# [5] = time 18-22 hours, E5564 solution with the labelled antioxidant (row 'none' = E5564 without antioxidant)
# [6] = time 0 hours, E5564 solution with the labelled antioxidant (row 'none' = E5564 without antioxidant)
SMILES,Comments (effectiveness of antioxidant in stabilizing E5564 to oxidation) [1],"E5564 conc. (% initial) [1, 4]","E5564 conc. (% initial) [1, 5]","E5564 conc. (% initial) [1, 6]","Major Oxidative Degradant [1, 5]",other results
O[C@H](CS)[C@H](O)CS (racemic) [dithiothreitol],effective,–,–,–,–,–
O=C1O[C@H]([C@@H](O)CO)C(O)=C1O [Ascorbic Acid],"Not useful, sta-",100 % initial,97.4 % initial,–,–,–
CCCCCCCCCCCCCCCC(=O)OC[C@H](O)[C@H]1OC(=O)C(O)=C1O [Ascorbyl Palmitate],"Not useful, sta-",100 % initial,92.4 % initial,–,–,–
"COc1ccc(O)c(C(C)(C)C)c1 [BHA, butylated hydroxyanisole]",Effective,–,102.3 % initial,100 % initial,0.27,"Stability of E5564 drug product in solution [2]: increases its stability; Major Oxidative Degradant [1, 6]: 0.68"
"Cc1cc(C(C)(C)C)c(O)c(C(C)(C)C)c1 [BHT, butylated hydroxytoluene]",Effective,–,102.8 % initial,100 % initial,–,–
CCCCCC/C=C\CCCCCCCCCC(=O)N[C@H]1[C@H](OC[C@H]2O[C@H](OP(=O)([O-])[O-])[C@H](NC(=O)CC(=O)CCCCCCCCCCC)[C@@H](OCCCCCCCCCC)[C@@H]2O)O[C@H](COC)[C@@H](OP(=O)([O-])[O-])[C@@H]1OCC[C@@H](CCCCCCC)OC.[Na+].[Na+].[Na+].[Na+] [E5564],Rapid degradation,–,91.3 % initial,100 % initial,6.02,"Stability of micelle size ([3]; 2 mM Na+ in formulation (excluding Na+ from the drug)): good stability; Maintaining the desired micelle size during freeze-drying ([3]; 10 mM Na+ in formulation (excluding sodium from the drug)): works for some, but not all, lots; Micelle Size (hydrodynamic diameter) ([3]; 1% (w/v) lactose in formulation): 16 nm; Micelle Size (hydrodynamic diameter) ([3]; 2% (w/v) lactose in formulation): 13 nm; Micelle Size (hydrodynamic diameter) ([3]; 5% (w/v) lactose in formulation): 8 nm; Micelle Size (hydrodynamic diameter) ([3]; 10% (w/v) lactose in formulation): 7 nm; Major Oxidative Degradant [1, 6]: 1.12"
"OCC(O)CS (centres unmarked) [Monothioglycerol, monothioglycerol]",Effective,100 % initial,101.3 % initial,–,–,–
"CCCOC(=O)c1cc(O)c(O)c(O)c1 [Propyl Gallate, propyl gallate]",Effective,–,100.6 % initial,100 % initial,–,–
"O=S([O-])[O-].[Na+].[Na+] [Sodium Sulfite, sodium sulfite]",Effective,100 % initial,101.8 % initial,–,0.25,"Major Oxidative Degradant [1, 4]: 0.13"
"O=S([O-])([O-])=S.[Na+].[Na+] [Sodium Thiosulfate, sodium thiosulfate]",Effective,100 % initial,100.2 % initial,–,0.19,"Major Oxidative Degradant [1, 4]: 0.09"
CC(=O)Oc1c(C)c(C)c2c(c1C)CCC(C)(CCC[C@H](C)CCC[C@H](C)CCCC(C)C)O2 (some centres unmarked) [Vitamin E Acetate],–,100 % initial,94.2 % initial,–,–,–
OC[C@H]1O[C@@H](O[C@H]2[C@H](O)[C@@H](O)C(O)O[C@@H]2CO)[C@H](O)[C@@H](O)[C@H]1O (some centres unmarked) [lactose],–,–,–,–,–,Stabilizing the micelle size of E5564 during freeze-drying [3]: effective
OC[C@H]1O[C@@](CO)(O[C@H]2O[C@H](CO)[C@@H](O)[C@H](O)[C@H]2O)[C@@H](O)[C@@H]1O [sucrose],–,–,–,–,–,Stabilizing the micelle size of E5564 during freeze-drying [3]: effective

# Reference: patent publication US20080095786A9, “Compositions And Methods For Preventing And Treating Endotoxin-Related Diseases And Conditions” (priority 2003, published 2008)
